The values that follow come from ChEMBL document CHEMBL4177681, “Protective effect of casuarinin against glutamate-induced apoptosis in HT22 cells through inhibition of oxidative stress-mediated MAPK phosphorylation” (Bioorg Med Chem Lett, 2017).

For experiment [1], the system named is HT-22. In words: Neuroprotective activity against glutamate-induced cell death in mouse HT22 cells assessed as increase in cell viability […] after 24 hrs by MTT assay. The format is functional, cell-based.
Experiment [2] concerns HT-22. In words: Neuroprotective activity against glutamate-induced apoptosis in mouse HT22 cells assessed as apoptotic cells at 50 uM after 10 to 12 hrs by Annexin V-alexa 488/propidium iodide staining based flow cytometry (reference value: 57%). It is filed as functional. (In flow cytometry, cells or beads pass a laser one at a time.)
In experiment [3] the test system is HT-22. In words: Neuroprotective activity against glutamate-induced cell death in mouse HT22 cells assessed as reduction in apoptotic cells at 50 uM after 10 to 12 hrs by Annexin V-alexa 488/propidium iodide staining based flow cytometry. It is filed as functional.

Activity calls are given as the source filed them. The calls are words filed in the database; no cut-off is given here.

As to `CC(=O)N[C@@H](CS)C(=O)O` [ACETYLCYSTEINE], the outcome with HT-22 [1] and in the experiment on HT-22 [3] was Active. Also, in the experiment on HT-22 [2], the Activity amounted to 17%.
